Data on one compound can be found in patent US9808434B2, “Compound for treating cancer and diabetes” (CITY OF HOPE, priority 2011, dated 2017).

One data set relates to U87. The data set is described as follows: Glioma ATP viability assay, U87. To be noted: Homo sapiens, U-87 MG; Table 1; 72 hours. The class given is cell-based. How it is done: (§1) Cells of each cell line (U251, U87, PBT-017, PBT018, PBT003 and PBT028) were treated with various concentrations (0˜100 μM) of COH-SR4 for 72 hours. Cell viabilities were determined by ATP viability assays. Data were represented as a ratio to vehicle (DMSO) control, and plotted as mean±SEM (n=12) obtained from 2˜3 experiments (FIG. 34A).
Cells of each cell line (U87, U251, PBT003 and PVT-017) were treated with various concentrations (0˜100 μM) of COH-SR4 for 72 hours. Cell viabilities were determined by ATP viability assays. Data were represented as a ratio to vehicle (DMSO) control, and plotted as mean±SEM (n=12) obtained from 2-3 experiments (FIG. 34B).

Data set [1] is described as follows: COH-SR4 in mice serum, HPLC analysis. It is filed as in vivo, mouse. To be noted: 4 mg/kg oral. How it is done:
Hsd: Athymic nude nu/nu mice obtained from Harlan, Indianapolis, Ind. were used for the oral administration of COH-SR4 on lung cancer progression in in-vivo xenograft model. Twelve 10-weeks-old mice were divided into two groups of 6 animals (treated with corn oil (vehicle), and COH-SR4 4 mg/kg b.w.). All animals were subcutaneously injected with 2×10^6 H358 cells in 100 μL of PBS into one flank of each mouse. Treatment was started 10 days after the implantation of cells to see palpable tumor growth. Treatment consisted of 0.1 mg (4 mg/kg b.w.) of COH-SR4/mice in 200 μL corn oil by oral gavage alternate day. Control groups were treated with 200 μL corn oil by oral gavage alternate day. Animals were examined daily for signs of tumor growth and body weights were recorded. […] Tumors were measured in two dimensions using calipers. […] (FIG. 81B). […] Photographs of animals were taken at day 1, day 10, day 14, day 18, day 30 and day 60 after subcutaneous injection, are shown for all groups (FIG. 81D). The absorption of orally administered COH-SR4 in mice was assessed.

In another data set the test system is U251 glioma cells. The data set is described as follows: Intracellular ROS (H2DCFDA+ cells), flow cytometry. The class given is cell-based. To be noted: 2 or 10 μM, 24 hours. On the procedure: Cells of U251 glioma cells or pNHA cell lines were treated with COH-SR4 at a concentration of 0 μM, 2 μM or 10 μM for 24 hours before intracellular ROS was assessed by flow cytometry (representative of 3 runs and samples in triplicate). ROS increased in the glioma cells treated with COH-SR4 as indicated by the increased amounts of H2DCFDA+ cells (FIG. 38).

Data set [2] relates to HAVSMC, NHDFs, melanocytes. The data set is described as follows: MTT assay, normal cells. The class given is cell-based, human. Conditions: 24 h and 48 h. On the procedure: Cell density measurements were performed using a hemocytometer to count reproductive cells resistant to staining with trypan blue. Approximately 20,000 cells were plated into each well of 96-well flat-bottomed micro-titer plates. After 12 h or 24 h incubation at 37° C., medium containing either COH-SR4 (ranging 0-200 μM) or elesclomol (ranging 0-20 μM) were added to the cells. After 24 h, 48 h or 96 h incubation, 20 μL of 5 mg/mL MTT were introduced to each well and incubated for 2 h. The plates were centrifuged and medium was decanted. Cells were subsequently dissolved in 100 μl DMSO with gentle shaking for 2 h at room temperature, followed by measurement of OD570 (91).

For the next data set, the system named is B16-F0. The data set is described as follows: Colony formation assay, B16-F0. The class given is cell-based, mouse. Conditions: 10 μM, vs untreated control. How it is done: Cell survival was evaluated using a standard colony-forming assay. […] After 7 or 10 days, adherent colonies were fixed, stained with 0.5% methylene blue for 30 min and colonies were counted using the Innotech Alpha Imager HP (91).

For another data set, the system named is HUVEC cells. The data set is described as follows: HUVEC cytotoxicity. It is filed as cell-based. Conditions: 48 hours, up to 10 μM. On the procedure: HUVEC were treated with COH-SR4 at a concentration from 0.1˜100 μM for 48 hours.
The next data set has as its system HRE promoter. The data set is described as follows: HRE promoter luciferase reporter in U251. To be noted: U251, 1 or 3 μM, 24 hours, normoxic and hypoxic. The class given is cell-based. On the procedure:
U251 cells were transfected with plasmids expressing luciferase reporter genes driven by a HRE reporter plasmid containing five copies of the HRE site (5×HRE). Transfected cells were then incubated with COH-SR4 at various concentrations (0, 1, or 3 μM) for 24 hours and assayed for luciferase activities. Data were represented as a ratio to vehicle control that was treated by DMSO.

The next data set concerns H358 lung cancer. The class given is in vivo. To be noted: day 60; 4 mg/kg b.w. oral alternate day; control 2.02±0.3 g. How it is done:
For lung cancer studies, twelve 10-weeks-old mice were divided into two groups of 6 animals (treated with corn oil (vehicle), and COH-SR4 compound 4 mg/kg b.w.). All animals were injected with 2×10^6 H358 cells suspensions in 100 μL of PBS, subcutaneously into one flank of each mouse. At the same time, animals were randomized treatment groups as well as control groups. Treatment was started 10 days after the implantation to see palpable tumor growth. Treatment consisted of 0.1 mg of COH-SR4/m ice in 200 μL corn oil by oral gavage alternate day. Control groups were treated with 200 μL corn oil by oral gavage alternate day. Animals were examined daily for signs of tumor growth. Tumors were measured in two dimensions using calipers. Photographs of animals were taken at day 1, day 10, day 14, day 18, day 30, and day 60 after subcutaneous injection.
Hsd: Athymic nude nu/nu mice obtained from Harlan, Indianapolis, Ind. were used for the oral administration of COH-SR4 on lung cancer progression in in-vivo xenograft model. Twelve 10-weeks-old mice were divided into two groups of 6 animals (treated with corn oil (vehicle), and COH-SR4 4 mg/kg b.w.). […] Animals were examined daily for signs of tumor growth and body weights were recorded. […] Tumors were measured in two dimensions using calipers. […] The absorption of orally administered COH-SR4 in mice was assessed.

Another data set relates to PBT028. In words: Glioma ATP viability assay, PBT028. It is filed as cell-based. Conditions: Table 1; 72 hours. How it is done: as §1
The subject of a further data set is HIF-1α. The data set is described as follows: HIF-1α protein expression in U251, immunoblotting. Conditions: U251, 1-10 μM. It is filed as cell-based. How it is done: U251 cells were incubated with various concentrations of COH-SR4 (1˜10 μM). Whole-cell lysates were analyzed by immunoblotting with antibodies against HIF-1α. GAPDH was used as a loading control.

Take `O=C(Nc1cc(Cl)cc(Cl)c1)Nc1cc(Cl)cc(Cl)c1` [COH-SR4, 1,3-bis(3,5-dichlorophenyl) urea]: the figures for the IC50 in the data set on U87 and with PBT028 were 2800 nM and 2000 nM, respectively. In data set [1], this compound showed a serum concentration of 1100 ± 300 nM. For the same compound, the “intracellular ROS (H2DCFDA+ cells)” value in the data set on U251 glioma cells was “ROS increased”. The “cytotoxicity in normal cells” value in [2] is “did not cause any significant cytotoxicity”. Moreover, in the data set with B16-F0, the colony formation is 38±9%. Besides, in the data set with HUVEC cells, the “cytotoxicity to HUVEC cells” value is given as “almost no cytotoxicity”. Besides, the “luciferase expression driven by HRE promoter” value in the data set on HRE promoter is reported as “inhibited luciferase expression driven by HRE promoter”. The tumor weight in the data set with H358 lung cancer stood at 0.77 ± 0.2 g. The HIF-1α protein expression entry in the data set with HIF-1α is recorded as “inhibited HIF-1α protein expression”.
